The subject of one series is Nostz rat. The series is described as follows: Antidiabetic activity in the Nostz rat (non-insulin-dependent diabetes induced using streptozotocin). The conditions noted are these: po, 2 h, blood 2 h after final administration, diabetic rats, read-out: percentage change in glycaemia relative to d0 (before treatment); for change in vivo at 20 mg/kg: 20 mg/kg/d oral; for change in vivo at 200 mg/kg: 200 mg/kg/d oral. The format is in vivo. The protocol:
The antidiabetic activity of the compounds of formula (I) was determined orally on an experimental model of non-insulin-dependent diabetes induced in the rat using streptozotocin.
The model of non-insulin-dependent diabetes is obtained in rats by neonatal injection (on the day of birth) of streptozotocin.
The diabetic rats used are 8 weeks old. The animals are kept from the day of their birth to the day of the experiment in an animal house at a regulated temperature of from 21 to 22° C. and are subjected to a fixed cycle of light (from 7.00 am to 7.00 pm) and darkness (from 7.00 pm to 7.00 am). Their diet consisted of a maintenance diet; water and food were provided ad libitum, except for the 2 hours fasting prior to the tests in which food is withdrawn (post-absorptive state).
The rats are treated orally for one (d1) or four (d4) days with the test product. Two hours after the final administration of the product and 30 minutes after anaesthesia of the animals with sodium pentobarbital (Nembutalo®), […] of blood is sampled from the end of the tail.

Counter-ions that a name gives are not always drawn. Like-named read-outs stand apart in the source and are kept apart here.

The melting point is the temperature, or range, at which the solid turns liquid. On to `CC(C)c1cccc(C(C)C)c1NC(=O)CNC(=N)N` (as salt: HCl) [Compound 2], for which the melting point fell in the range of 260 to 262 °C.
Still for that read-out and setting: in the case of `Cc1cccc(C)c1NC(=O)[C@H](C)NC(=N)N` (as salt: HCl) [Compound 6] it was 159 to 161 °C; in that of `Cc1cc(C)c(NC(=O)CNC(=N)N)c(C)c1` (as salt: HCl) [Compound 7], greater than 260 °C; in that of `N=C(N)NCC(=O)N(Cc1ccccc1)Cc1ccccc1` (as salt: HCl) [Compound 11], 217 to 219 °C.
`N=C(N)NCC(=O)Nc1c(Cl)cccc1Cl` (as salt: HCl) [Compound 12] came in with a melting point of 181 to 183 °C.
On the same count and under the same terms, for `N=C(N)NCC(=O)NCc1ccccc1` (as salt: HCl) [Compound 15] the value was 144 to 146 °C.
Still for that read-out and setting: for `CSc1cc(C)nc(SC)c1NC(=O)CNC(=N)N` (as salt: HCl) [Example 3] the value was 249 to 251 °C.
Still for that read-out and setting: for `Cc1cccc(C)c1NC(=O)CN(C)C(=N)N` (as salt: HCl) [Example 5] the value was 227 to 229 °C.
As for `Cc1cccc(C)c1NC(=O)[C@H](C)NC(=N)N` [Compound 6], in the series on Nostz rat (d1 (one day of treatment)), the change in vivo at 20 mg/kg turned out to be 8% and the change in vivo at 200 mg/kg is -4%. Moreover, in the series with Nostz rat (d4 (four days of treatment)), the change in vivo at 20 mg/kg was -3% and the change in vivo at 200 mg/kg is -18%.
In the same order, the values of `Cc1cc(C)c(NC(=O)CNC(=N)N)c(C)c1` [Compound 7] are -9%, -3%, -9% and -10%.
In the same order, the values of `CCC(C)[C@H](NC(=N)N)C(=O)Nc1c(C)cccc1C` (stereo partly drawn) [Compound 8] are -11%, -8%, -14% and -10%.
For `Cc1cccc(C)c1NC(=O)[C@H](CC(C)C)NC(=N)N` [Compound 9], in the series with Nostz rat (d1 (one day of treatment)), the change in vivo at 20 mg/kg was -4% and the change in vivo at 200 mg/kg came out at 7%. Moreover, in the series on Nostz rat (d4 (four days of treatment)), the change in vivo at 20 mg/kg is -15% and the change in vivo at 200 mg/kg is -4%.
`Cc1cccc(C)c1NC(=O)[C@H](C(C)C)N(C)C(=N)N` [Compound 10]: in the series on Nostz rat (d1 (one day of treatment)), the change in vivo at 20 mg/kg is -13% and the change in vivo at 200 mg/kg is -3%. Moreover, in the series on Nostz rat (d4 (four days of treatment)), the change in vivo at 20 mg/kg was -15% and the change in vivo at 200 mg/kg was -16%.
With `N=C(N)NCC(=O)N(Cc1ccccc1)Cc1ccccc1` [Compound 11], in the series on Nostz rat (d1 (one day of treatment)), the change in vivo at 20 mg/kg is -14% and the change in vivo at 200 mg/kg is -3%. For the same compound, in the series with Nostz rat (d4 (four days of treatment)), the change in vivo at 20 mg/kg was -9% and the change in vivo at 200 mg/kg was -16%.
For `N=C(N)NCC(=O)Nc1c(Cl)cccc1Cl` [Compound 12], in that order: -9%, -14%, -13% and -27%.
As to `Cc1cccc(C)c1NC(=O)CNC(=N)N` [Example 1], the melting point fell in the range of 255 to 257 °C. In addition, in the series with Nostz rat (d1 (one day of treatment)), the change in vivo at 20 mg/kg is -3% and the change in vivo at 200 mg/kg was -20%. Further, in the series on Nostz rat (d4 (four days of treatment)), the change in vivo at 20 mg/kg is -7% and the change in vivo at 200 mg/kg was -24%.
Regarding `CSc1cc(C)nc(SC)c1NC(=O)CNC(=N)N` [Example 3], the change in vivo at 20 mg/kg with Nostz rat (d1 (one day of treatment)) was 7%; with Nostz rat (d4 (four days of treatment)), -7%. For the same compound, the change in vivo at 200 mg/kg with Nostz rat (d1 (one day of treatment)) is -5%; in the series with Nostz rat (d4 (four days of treatment)), -4%.
Take `Cc1cccc(C)c1NC(=O)CCNC(=N)N` [Example 4]: the melting point was 223 to 225 °C. Besides, in the series with Nostz rat (d1 (one day of treatment)), the change in vivo at 20 mg/kg is -1% and the change in vivo at 200 mg/kg is -13%. In the series with Nostz rat (d4 (four days of treatment)), the change in vivo at 20 mg/kg was -11% and the change in vivo at 200 mg/kg is -15%.
`Cc1cccc(C)c1NC(=O)CN(C)C(=N)N` [Example 5]: in the series with Nostz rat (d1 (one day of treatment)), the change in vivo at 20 mg/kg is -2% and the change in vivo at 200 mg/kg was -16%. In the series on Nostz rat (d4 (four days of treatment)), the change in vivo at 20 mg/kg was -7% and the change in vivo at 200 mg/kg was -25%.

Values taken from patent publication US6518458B1, “(Aminoiminomethyl) amino) alkane-carboxamides and their applications in therapy” (Merck Patent GmbH, priority 1999, dated 2003).
